Residues, ends and D or L forms follow the SMILES beside them. *: point of attachment. OiPr = CC(C)O* Bounds are passed on as bounds.

Usually melting point stands for the temperature of the solid-liquid transition.

Compound `COc1ccc(-c2cn[nH]c2N)cc1OC` showed a melting point of 143 to 146 °C.
The compound `CCCc1ccc(-n2cnc(-c3ccc(C#N)cc3)c2)cc1` yielded a melting point of 133 °C.
The figure for `O=C1NCC(CCc2ccccc2F)O1` (stereo not drawn) is 73 to 74 °C.
The figure for `Cc1ccc(-c2csc(NC(=O)c3nnn[nH]3)n2)cc1` is 250 to 253 °C; for `O=c1ccc(-c2c(-c3ccccc3)nn3ccccc23)nn1CC1(O)CCNCC1` it is more than 260 °C; for `CSCC[C@H](N)C(=O)NC(=O)C(CS)Cc1ccccc1` (stereo partly drawn) it is 153 to 156 °C.
Take `CCN1CCC2(CC1)c1ccccc1Sc1c(O)cccc12`: the melting point lay within 223 to 225 °C.
With `FC(F)(F)c1ccc(C=Cc2nc(CNc3ccc(CCCCn4ccnn4)cc3)co2)cc1`, the melting point lay within 113 to 115 °C.
The figure for `O=C1Nc2ccccc2C(c2ccccc2)CC1Br` (stereo not drawn) is 191 to 192 °C; for `O=C(O)c1ccc(-c2ccnc(-c3cc(-c4ccc(C(=O)O)s4)ccn3)c2)s1` it is more than 300 °C; for `N#CC1Nc2ccccc2N2CCc3cccc1c32` (stereo not drawn) it is 185 to 186 °C.
The figure for `CCc1cnn(CC(=O)O)c1OCCCc1cn(-c2ccc(C(F)(F)F)cn2)nc1C(CC)CC` is 124 to 125 °C.
With `N#CCc1ccc2ncc(C(=O)NCc3ccc(Cl)cc3)c(O)c2c1`, the melting point is 244 to 246 °C.
The compound `O=C(O)c1ccc(CNC(=O)C2Cc3ccccc3N2S(=O)(=O)c2ccc(-c3cccc(C(F)(F)F)c3)cc2)cc1` (stereo not drawn) came in with a melting point of 120 °C.
The figure for `CCN1CC(=O)N(c2c(C(C)C)cccc2C(C)C)C1=S` is 159 to 161 °C; for `Cn1cncc1COc1nn2c(-c3ccccc3)nnc2cc1-c1ccccc1` it is 195 to 196 °C; for `O=C(O)CN1CCCCC1` it is 185 to 187 °C.
The figure for `O=C(/C=C/c1cccc(-c2cccc([N+](=O)[O-])c2)c1)Nc1ccc(CN2CCCCC2)cc1` is 178 to 179 °C; for `Cn1nnnc1CN1C2CCC1CC(Oc1ccc(Cl)c(Cl)c1)C2` (stereo not drawn) it is 119 to 120 °C; for `NC(Cc1cccc(C(F)(F)F)c1)=NO` it is 91 to 92 °C.
As for `COc1ccc(C(=O)c2c(-c3ccccc3)sc3ccccc23)cc1`, the melting point lay in the range of 107 to 109 °C.
Take `CC(C)c1cc(C=C2C(=O)NC(=O)N2C)cc(C(C)C)c1O`: the melting point lay in the range of 197 to 208 °C.
`O=C1CC(=O)OC(CCc2ccccc2)(C2CCCC2)C1` (stereo not drawn) displayed a melting point of 96 to 99 °C.
The figure for `O=Cc1ccc(OC[C@H]2CCCN2c2ncnc3[nH]cnc23)c2ccccc12` is 167 to 168 °C.
The figure for `CCOCCOC(=O)C(=O)Nc1nc(-c2ccc(OC)cc2)cs1` is 130 to 133 °C.
The figure for `CC(CO)COc1ccc(C#Cc2ccc(C(=O)O)cc2)cc1C12CC3CC(CC(C3)C1)C2` (stereo not drawn) is 260 to 262 °C; for `COc1ccc(CNc2nc(CCC(=O)O)nc3sc4ccccc4c23)cc1Cl` it is 218 °C.
In turn, `O=C(O)C(Cc1ccccc1)c1ccc([N+](=O)[O-])cc1` (stereo not drawn) showed a melting point of 163 to 164 °C.
In turn, `Nc1ncc(Oc2ccc(Cl)cc2)c(N2CCN(C=O)CC2)n1` registered a melting point of 159 to 161 °C.
The figure for `C[C@@H](n1cnc2cc(-c3ccc(S(C)(=O)=O)cc3)sc2c1=O)[C@](O)(Cn1cncn1)c1ccc(F)cc1F` is 281 to 282 °C; for `COc1ccc(C2=NN(C3CCN(S(=O)(=O)Cc4ccccc4)CC3)C(=O)CC2)cc1OC` it is 114 °C; for `CC(C)OC(=O)C(C)NC(=O)C(CC(=O)O)NC(=O)C(C)N` (stereo not drawn) (H-Ala-Asp-Ala-OiPr; configuration not given here) it is 219 to 221 °C.
The figure for `O=C1c2ccc([N+](=O)[O-])c3c([N+](=O)[O-])c(Br)cc(c23)C(=O)N1O` is 233 to 234 °C; for `CC(C)n1nc(-c2sc(NC(=N)N)nc2-c2ccccc2)ccc1=O` it is more than 250 °C; for `CCCCC(=O)Oc1c(-c2ccc(-c3ccccc3)cc2)nc2ccc(F)cc2c1C(=O)O` it is 214 to 217 °C.
Compound `CC1CN(C)CCC1(O)c1cc2ccccc2o1` (stereo not drawn) showed a melting point of 128 to 130 °C.
Turning to `CC(CBr)N1CCN(c2ccccn2)CC1` (stereo not drawn), the melting point was 50 to 51 °C.
The figure for `CC1(C)COc2cc(Br)ccc2C(O)(c2ccccn2)C1` (stereo not drawn) is 110 °C; for `O=c1c(Cl)c(OCc2ccc(Cl)cc2)cnn1-c1ccc(Cl)cc1F` it is 167 to 168 °C.
The figure for `Cc1cc(CNC(=O)c2cc(-c3ccc(C(C)(C)C)cc3)nn2CC(=O)c2ccccc2)ccc1OC(C)(C)C(=O)O` is 116 °C.
The figure for `CN(CC(O)c1ccc(C=O)cc1)C(=O)OC(C)(C)C` (stereo not drawn) is 37 to 39 °C; for `COc1ccnc(CC(C)(C)C(=O)O)c1` it is 150 to 151 °C.
For `COc1ccc(OCc2ccccn2)cc1/C=C/c1cc(/C=C/c2c[nH]c3ccccc23)n[nH]1`, the melting point is 233 to 238 °C.
The figure for `CCOC(=O)C(=CNc1cc(=O)c2ccccc2o1)C(=O)OCC` is 138 to 140 °C; for `O=Cc1c[nH]c2c1ccc1c3cc(-c4ccc(F)cc4)ccc3[nH]c12` it is more than 250 °C.
The figure for `CCc1cc(C(=O)O)ccc1N=C1SCC2(CCCC2)N1C1CCCC1` is 208 to 209 °C; for `CC(=O)/C=C(\C)c1ccc(C2CCCCC2)c(Br)c1` it is 52 to 53 °C.
In turn, `COc1cc(OC)cc(-c2nsnc(Cl)c2=O)c1` had a melting point of 121 to 124 °C.
The figure for `NC(=O)Nc1ccc2oc([N+](=O)[O-])c(-c3ccccc3)c2c1` is 230 to 232 °C; for `c1ccc(-c2csc(-c3cccs3)n2)cc1` it is 51 to 53 °C.
The figure for `CC(C)n1c(=O)nc(-c2ccccc2)c2cc3c(cc21)OCO3` is 189 to 190 °C; for `Fc1ccc(F)c(C(Sc2ccc(Cl)cc2)c2ccc(C3OCCO3)cn2)c1` (stereo not drawn) it is 70 to 73 °C.
The figure for `CCCCOc1ccc(S(=O)(=O)C2(C(=O)O)CCN(C)CC2)cc1` is 118 °C; for `CCCc1c(OC)n2c3c(=O)n(C)c(=O)n(C)c3nc2n(Cc2ccccc2)c1=O` it is 199 to 201 °C; for `CN1CCN(c2ccc(CCCC(=O)N3CCC(c4ccc(Cl)cc4)CC3)cc2)CC1` it is 119 to 120 °C.
In turn, `Cn1nc(OC(c2ccccc2)c2ccccc2)c(=O)nc1Cl` showed a melting point of 182 to 184 °C.
Take `O=C1c2ccccc2C(=O)N1CCCC1c2ccccc2C=Cc2ccccc21`: the melting point lay in the range of 126 to 132 °C.
The figure for `COc1ccc(S(=O)(=O)Nc2ccccc2NC(=S)c2ccc(F)cc2)cc1` is 155 to 156 °C; for `COC(=O)Nc1cnc2ccc(Sc3ccccc3)cn12` it is 211 to 215 °C; for `O=C(Nc1ccc(-n2nc(C(F)(F)F)cc2C(F)(F)F)cc1)c1ccncc1[N+](=O)[O-]` it is 207 to 209 °C.
The figure for `CCCOC(=O)C1Oc2ccccc2Cc2ccccc2O1` is 82 to 85 °C; for `CNC(=O)C(CCN(C)C)(c1ccccc1)C(O)c1ccccc1` (stereo not drawn) it is 107 to 115 °C; for `O=C(Nc1nnc(C(F)(F)F)s1)c1ccc2ccccc2c1` it is 249 to 251 °C.

For the origin of these results see a melting point compilation (Tetko et al.; mined from patent text by program, amines drawn as free bases though some values may be those of a salt).
